This is an account of results in patent publication US20250188110A1, “SPECIFIC SMALL MOLECULE INHIBITORS THAT BLOCK KMT9 METHYLTRANSFERASE ACTIVITY AND FUNCTION” (ALBERT-LUDWIGS-UNIVERSITÄT FREIBURG, priority 2021, published 2025).

The structures appear in SMILES notation. Read-outs that look alike come from different tables or passages of the source. Bounds are passed on as bounds.

Assay [1] concerns the target T1, KMT9 (Homo sapiens, UniProt Q9Y5N5).
T1 sequence (Q9Y5N5 1-214): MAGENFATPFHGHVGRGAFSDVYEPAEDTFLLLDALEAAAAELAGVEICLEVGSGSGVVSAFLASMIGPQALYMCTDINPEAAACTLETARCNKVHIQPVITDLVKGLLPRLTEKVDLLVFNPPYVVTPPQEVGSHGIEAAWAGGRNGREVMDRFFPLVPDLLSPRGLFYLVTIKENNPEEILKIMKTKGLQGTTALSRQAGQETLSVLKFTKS
T1 sequence (Q9UI30 1-120 isoform Q9UI30-2 partner): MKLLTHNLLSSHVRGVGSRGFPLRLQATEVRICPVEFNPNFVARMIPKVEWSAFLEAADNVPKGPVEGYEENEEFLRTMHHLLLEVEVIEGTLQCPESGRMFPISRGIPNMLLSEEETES
In words: KMT9 methyltransferase inhibition assay, MTaseGlo luminescence (from entry 155). It is filed as biochemical. As to conditions: 100 nM KMT9, 5 μM ETF1, 1 μM SAM. Summed up:
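KMT9 (100 nM final) pre-incubated with inhibitor for 15 min at room temperature, then reacted with 5 μM ETF1 and 1 μM SAM for 2 h at 30° C. at 2% DMSO final. MTaseGlo luminescence read after 60 min detection; IC50 reported in four potency bins.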

The target in assay [2] is T1, KMT9. Put plainly: KMT9 thermal shift assay (SyproOrange). It is filed as binding. Summed up: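 ΔTm versus DMSO-only control is reported in bins (>20 K, 15–20 K, 10–15 K, ≤10 K), using Tm from Boltzmann sigmoidal fits of SyproOrange melt curves. KMT9 with compound in pH 8.5 BTP buffer containing MgCl2 and DTT was preincubated at 25° C, then ramped 1° C per 15 s up to 95° C.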

Assay [3] deals with T1, KMT9. In words: Microscale thermophoresis (MST) KMT9 binding. Summed up: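 Kd from microscale thermophoresis: compound series against 20 nM His-KMT9 labelled via RED-Tris-NTA, buffer 25 mM HEPES (pH 7.5)/100 mM NaCl/1 mM DTT/0.05% Tween, 40% MST power, 100% LED. Reported as classes: A ≤10 nM, B >10–100 nM, C >100–1000 nM, D >1000 nM.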
The mark [4] stands for this setting: MTaseGlo procedure (entries from 155), read-out: Inhibition (IC50).
Where [5] appears, read: 500 µM compound, 2 μM KMT9, read-out: Thermal shift (ΔTm).
[6] abbreviates: His-tag labelled KMT9 20 nM, read-out: MST (Kd).
The mark [7] stands for this setting: IC50 class, MTaseGlo procedure (entries from 155 on), read-out: Inhibition.
Where [8] appears, read: ΔTm class, 500 uM compound, 2 μM KMT9, read-out: Thermal shift.
Where [9] appears, read: His-tag labelled KMT9 20 nM, Kd class, read-out: MST.

Take `Nc1nc(Cl)nc2c1ccn2[C@@H]1C[C@H](c2cn[nH]c2)[C@@H](O)[C@H]1O` [Compound 582, (1R,2S,3R,5R)-3-{4-Amino-2-chloropyrrolo[2,3-d]pyrimidin-7-yl}-5-(1H-pyrazol-4-yl)cyclopentane-1,2-diol]: the IC50 on KMT9 [1] (setting [4]) is 1000 to 10000 nM. For the same compound, the ΔTm at 500 µM at KMT9 [2] (setting [5]) was ≤ 10 °C. Also, the Kd at KMT9 [3] (setting [6]) lay within 100 to 1000 nM.

`Nc1nc(Cl)nc2c1c(-c1nc(Cc3ccccc3)cs1)cn2[C@@H]1C[C@H](CNCCCNCCc2ccccc2)[C@@H](O)[C@H]1O` [Compound 635, (1R,2S,3R,5R)-3-(4-Amino-5-(4-benzylthiazol-2-yl)-2-chloro-7H-pyrrolo[2,3-d]pyrimidin-7-yl)-5-(((3-(phenethylamino)propyl)amino)methyl)cyclopentane-1,2-diol]: on KMT9 [1] (from entry 155: MTaseGlo assay, read-out: Inhibition), the IC50 lay within 100 to 1000 nM. In addition, the ΔTm at 500 µM on KMT9 [2] (ΔTm, 500 µM compound, 2 μM KMT9, 5X SO, read-out: Thermal shift) was 15 to 20 °C. On KMT9 [3] (microscale thermophoresis, His-tag labelled KMT9 (20 nM), read-out: MST), the Kd was in the range of 100 to 1000 nM.

On to `COc1ccc([C@H]2C[C@@H](n3ccc4c(N)nc(Cl)nc43)[C@H](O)[C@@H]2O)cn1` [Compound 591, (1R,2S,3R,5R)-3-{4-amino-2-chloropyrrolo[2,3-d]pyrimidin-7-yl}-5-(6-methoxypyridin-3-yl)cyclopentane-1,2-diol], for which the IC50 on KMT9 [1] (setting [4]) lay in the range of 100 to 1000 nM. Besides, the ΔTm at 500 µM at KMT9 [2] (setting [5]) lay in the range of 10 to 15 °C. In addition, the Kd on KMT9 [3] (setting [6]) lay within 10 to 100 nM.

Consider `CN(CCCNCCc1ccc(F)cc1)C[C@H]1C[C@@H](n2cc(-c3ccn(C)n3)c3cnc(Cl)nc32)[C@H](O)[C@@H]1O` [Compound 644, (1R,2S,3R,5R)-3-[2-Chloro-5-(1-methylpyrazol-3-yl)pyrrolo[2,3-d]pyrimidin-7-yl]-5-{[(3-{[2-(4-fluorophenyl)ethyl]amino}propyl)(methyl)amino]methyl}cyclopentane-1,2-diol], for which the IC50 on KMT9 [1] (setting [7]) is > 10000 nM. In addition, the ΔTm at 500 µM at KMT9 [2] (setting [8]) was ≤ 10 °C. The Kd at KMT9 [3] (setting [9]) was > 1000 nM.

Turning to `CN1CCC=C([C@H]2C[C@@H](n3cc(-c4nc(Cc5ccccc5)cs4)c4cnc(Cl)nc43)[C@H](O)[C@@H]2O)C1` [Compound 585, (1R,2S,3R,5R)-3-[5-(4-Benzyl-1,3-thiazol-2-yl)-2-chloropyrrolo[2,3-d]pyrimidin-7-yl]-5-(1-methyl-5,6-dihydro-2H-pyridin-3-yl)cyclopentane-1,2-diol], the IC50 at KMT9 [1] (setting [7]) lay within 1000 to 10000 nM. Moreover, the ΔTm at 500 µM on KMT9 [2] (setting [8]) fell in the range of 10 to 15 °C. For the same compound, the Kd at KMT9 [3] (setting [9]) lay within 100 to 1000 nM.

In the case of `COc1cc([C@H]2C[C@@H](n3ccc4c(N)nc(Cl)nc43)[C@H](O)[C@@H]2O)ccn1` [Compound 663, (1R,2S,3R,5R)-3-{4-Amino-2-chloropyrrolo[2,3-d]pyrimidin-7-yl}-5-(2-methoxypyridin-4-yl)cyclopentane-1,2-diol], at KMT9 [1] (setting [4]), the IC50 lay within 100 to 1000 nM. At KMT9 [2] (setting [5]), the ΔTm at 500 µM was ≤ 10 °C. At KMT9 [3] (setting [6]), the Kd lay within 10 to 100 nM.

With `O[C@@H]1[C@H](O)[C@@H](C2CCN(CC3CC3)CC2)C[C@H]1n1cc(-c2nc(Cc3ccccc3)cs2)c2cnc(Cl)nc21` [Compound 497, (1R,2S,3R,5R)-3-(5-(4-Benzylthiazol-2-yl)-2-chloro-7H-pyrrolo[2,3-d]pyrimidin-7-yl)-5-(1-(cyclopropylmethyl)piperidin-4-yl)cyclopentane-1,2-diol], the IC50 on KMT9 [1] (setting [7]) was in the range of 1000 to 10000 nM. Also, the ΔTm at 500 µM at KMT9 [2] (setting [8]) fell in the range of 10 to 15 °C. Besides, on KMT9 [3] (setting [9]), the Kd fell in the range of 10 to 100 nM.

Turning to `COc1cccc([C@H]2C[C@@H](n3ccc4c(N)nc(Cl)nc43)[C@H](O)[C@@H]2O)c1` [Compound 670, (1R,2S,3R,5R)-3-{4-amino-2-chloropyrrolo[2,3-d]pyrimidin-7-yl}-5-(3-methoxyphenyl)cyclopentane-1,2-diol], at KMT9 [1] (setting [4]), the IC50 was 100 to 1000 nM. The ΔTm at 500 µM at KMT9 [2] (setting [5]) lay within 10 to 15 °C. On KMT9 [3] (setting [6]), the Kd is ≤ 10 nM.

As to `COc1cc(OC)cc([C@H]2C[C@@H](n3ccc4c(N)nc(Cl)nc43)[C@H](O)[C@@H]2O)c1` [Compound 664, (1R,2S,3R,5R)-3-{4-Amino-2-chloropyrrolo[2,3-d]pyrimidin-7-yl]-5-(3,5-dimethoxyphenyl)cyclopentane-1,2-diol], the IC50 on KMT9 [1] (setting [4]) fell in the range of 100 to 1000 nM. Besides, the ΔTm at 500 µM at KMT9 [2] (setting [5]) is 10 to 15 °C. For the same compound, the Kd at KMT9 [3] (setting [6]) was in the range of 10 to 100 nM.
